The source of these data is ChEMBL document CHEMBL5096211, “Fluorophenylalkyl-substituted cyanoguanidine derivatives as bacteria-selective MATE transporter inhibitors for the treatment of antibiotic-resistant infections” (Bioorg Med Chem, 2022).

Data set [1] deals with T1, Multidrug resistance protein MdtK (Escherichia coli (strain K12)) (UniProt P37340).
T1 sequence (whole entry): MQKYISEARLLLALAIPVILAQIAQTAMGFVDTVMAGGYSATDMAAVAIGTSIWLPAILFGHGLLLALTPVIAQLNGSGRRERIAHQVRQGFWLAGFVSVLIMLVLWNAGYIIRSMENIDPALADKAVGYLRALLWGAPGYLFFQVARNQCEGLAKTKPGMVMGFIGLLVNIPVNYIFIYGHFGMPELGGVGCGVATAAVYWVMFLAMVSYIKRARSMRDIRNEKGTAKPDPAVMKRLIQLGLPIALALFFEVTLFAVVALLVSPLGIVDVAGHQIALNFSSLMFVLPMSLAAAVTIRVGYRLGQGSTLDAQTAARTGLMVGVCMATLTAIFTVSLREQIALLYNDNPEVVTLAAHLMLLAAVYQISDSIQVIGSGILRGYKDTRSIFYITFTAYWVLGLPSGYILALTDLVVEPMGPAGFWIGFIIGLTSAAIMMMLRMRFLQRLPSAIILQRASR
Kind of data set: Inhibition of Escherichia coli MdtK expressed in Escherichia coli KAM32 assessed as inhibition of bacterial growth incubated for 18 hrs by microbroth dilution method. Background: In broth dilution the organism is exposed to a series of concentrations in liquid medium.

Data set [2] deals with T2, Multidrug resistance protein HmrM (Haemophilus influenzae) (UniProt P45272).
T2 sequence (whole entry): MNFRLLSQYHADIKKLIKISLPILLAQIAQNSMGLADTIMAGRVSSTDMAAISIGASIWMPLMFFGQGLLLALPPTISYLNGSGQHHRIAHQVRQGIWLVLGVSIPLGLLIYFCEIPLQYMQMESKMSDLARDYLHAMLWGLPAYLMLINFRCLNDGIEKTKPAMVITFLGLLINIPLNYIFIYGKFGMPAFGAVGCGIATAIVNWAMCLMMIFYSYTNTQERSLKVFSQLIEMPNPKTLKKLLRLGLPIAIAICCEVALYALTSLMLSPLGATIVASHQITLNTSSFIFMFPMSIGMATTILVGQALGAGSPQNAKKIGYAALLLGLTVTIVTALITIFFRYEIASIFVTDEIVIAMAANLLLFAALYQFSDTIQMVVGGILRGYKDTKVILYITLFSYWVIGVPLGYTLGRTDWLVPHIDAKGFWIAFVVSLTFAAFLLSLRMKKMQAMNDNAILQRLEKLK
As to the kind of experiment: Inhibition of Haemophilus influenza HmrM transporter expressed in Escherichia coli KAM32 assessed as inhibition of bacterial resistance to norfloxacin by measuring norfloxacin MIC at 100 uM incubated for 18 hrs by microbroth dilution method.

Data set [3] deals with T2, Multidrug resistance protein HmrM (Haemophilus influenzae). Kind of data set: Inhibition of Haemophilus influenza HmrM transporter expressed in Escherichia coli KAM32 assessed as inhibition of bacterial resistance to norfloxacin by measuring reduction in bacterial growth at 100 uM incubated for 18 hrs by microbroth dilution method.
In data set [4] the test system is Bacteroides thetaiotaomicron. Kind of data set: Inhibition of Bacteroides thetaiotaomicron BexA expressed in Escherichia coli KAM32 assessed as inhibition of bacterial growth incubated for 18 hrs by microbroth dilution method.
The target in data set [5] is T3, Multidrug and toxin extrusion protein 1 (Homo sapiens, UniProt Q96FL8).
T3 sequence (Q96FL8 whole entry): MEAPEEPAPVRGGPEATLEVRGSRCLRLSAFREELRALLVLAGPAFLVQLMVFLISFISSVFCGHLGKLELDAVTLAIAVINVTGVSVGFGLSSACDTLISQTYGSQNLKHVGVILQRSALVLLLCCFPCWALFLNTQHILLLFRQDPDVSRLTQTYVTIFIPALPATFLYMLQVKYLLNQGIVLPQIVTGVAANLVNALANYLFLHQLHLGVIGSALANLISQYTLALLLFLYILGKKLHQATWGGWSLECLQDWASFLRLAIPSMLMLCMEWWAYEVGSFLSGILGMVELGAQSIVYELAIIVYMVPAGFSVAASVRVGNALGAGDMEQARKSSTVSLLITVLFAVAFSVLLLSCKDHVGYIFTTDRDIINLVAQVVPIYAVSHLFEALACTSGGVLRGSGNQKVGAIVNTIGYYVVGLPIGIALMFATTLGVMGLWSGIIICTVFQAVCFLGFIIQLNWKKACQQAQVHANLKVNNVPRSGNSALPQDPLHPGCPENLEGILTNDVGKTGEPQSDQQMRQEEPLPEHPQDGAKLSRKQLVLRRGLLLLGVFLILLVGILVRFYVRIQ
Kind of data set: Inhibition of human MATE1. The class given is toxicity.

The next data set has as its system HEK293. As to the kind of experiment: Cytotoxicity against human HEK293 cells assessed as reduction in cell viability upto 300 uM incubated for 24 hrs by MTT assay. Format: toxicity, cell-based. The conditions noted are these: hek293, 24 h. (In general: Tetrazolium dyes change colour on reduction, which living cells bring about.)

By IC50 is commonly meant the midpoint of a concentration-inhibition curve.

Molecules are shown by their SMILES. In brackets after ≈: the same amount, converted by molar mass.

As to `CN/C(=N\C#N)NCCSCCc1cccc(F)c1`, the Efficacy in data set [1] amounted to 57%; in data set [3] it was 75%; in data set [4], 0%. Also, the MIC in data set [2] turned out to be 0.028 µg/mL (≈ 0.0999 µM).

With `CN/C(=N\C#N)NCCSCc1cccc(OC)c1`, in data set [2], the MIC was 0.04 µg/mL (≈ 0.144 µM). In data set [3], the Efficacy worked out at 50%.

With `CN/C(=N\CCSCc1nc[nH]c1C)NC#N`, the MIC in data set [2] came out at 0.056 µg/mL (≈ 0.222 µM). The Efficacy in data set [3] worked out at 17%.

As for `CN/C(=N\C#N)NCCSCc1cc(F)cc(F)c1`, in data set [2], the MIC is 0.04 µg/mL (≈ 0.141 µM). Besides, the Efficacy in data set [3] is 50%.

Consider `CN/C(=N\C#N)NCCSCc1ccc(F)cc1`, for which the MIC in data set [2] is 0.048 µg/mL (≈ 0.18 µM). Further, the Efficacy in data set [3] turned out to be 33%.

As for `CN/C(=N\C#N)NCCOCc1cccc(F)c1`, the MIC in data set [2] was determined as 0.056 µg/mL (≈ 0.224 µM). In addition, the Efficacy in data set [3] was found to be 17%.

Take `CN/C(=N\C#N)NCCSCc1ccccc1`: the MIC in data set [2] turned out to be 0.056 µg/mL (≈ 0.225 µM). The compound also registered an IC50 in data set [5] greater than 100 µM. In addition, the Efficacy in data set [3] was determined as 17%.

As for `Fc1cccc(CSCCNc2ncccn2)c1`, the MIC in data set [2] was 0.056 µg/mL (≈ 0.213 µM). Besides, the Efficacy in data set [3] was determined as 17%.

`Cc1[nH]cnc1CSCCNc1ncccn1` showed an IC50 in data set [5] of 2 µM.

`CN/C(=N\C#N)NCCSCc1cccc(C(F)(F)F)c1`: the MIC in data set [2] is 0.048 µg/mL (≈ 0.152 µM). Moreover, the Efficacy in data set [3] is 33%.

For the compound `CN/C(=N\C#N)NCCCCCc1cccc(F)c1`, the Efficacy in data set [1] was found to be 86%; in data set [3], 92%; in data set [4], 0%. Moreover, the Activity result in the data set with HEK293 is on record as “Non-Toxic”. The MIC in data set [2] was 0.02 µg/mL (≈ 0.0762 µM). In data set [5], the half-inhibitory concentration (IC50) was greater than 100 µM.

Consider `N=C(N)NCCSCc1cccc(F)c1`, for which the MIC in data set [2] was found to be 0.048 µg/mL (≈ 0.211 µM). In addition, the Efficacy in data set [3] worked out at 33%.

In the case of `CN/C(=N\C#N)NCCCc1cccc(F)c1`, the MIC in data set [2] came to 0.04 µg/mL (≈ 0.171 µM). Moreover, the Efficacy in data set [3] was determined as 50%.

On to `CN/C(=N\C#N)NCCSCc1ccccc1F`, for which the MIC in data set [2] is 0.04 µg/mL (≈ 0.15 µM). Also, the Efficacy in data set [3] came out at 50%.

With `CS/C(=N\C#N)NCCSCc1cccc(F)c1`, the MIC in data set [2] worked out at 0.032 µg/mL (≈ 0.113 µM). For the same compound, the Efficacy in data set [3] was 67%.

On to `CN/C(=N\C#N)NCCCCc1cccc(F)c1`, for which the Efficacy was determined as 57% in data set [1], 83% in data set [3] and 0% in data set [4]. Moreover, the MIC in data set [2] is 0.024 µg/mL (≈ 0.0967 µM).

Turning to `CN/C(=N\C#N)NCCSCc1cccc(F)c1`, the MIC in data set [2] came to 0.032 µg/mL (≈ 0.12 µM). This compound also returned an IC50 in data set [5] greater than 100 µM. Also, the Efficacy in data set [3] came to 67%.

Regarding `CN/C(=N\C#N)NCCc1cccc(F)c1`, the MIC in data set [2] was 0.056 µg/mL (≈ 0.254 µM). Besides, the Efficacy in data set [3] worked out at 17%.

Regarding `CN/C(=N\C#N)NCCSCc1cccc([N+](=O)[O-])c1`, in data set [2], the MIC worked out at 0.032 µg/mL (≈ 0.109 µM). Further, the Efficacy in data set [3] came to 67%.

In the case of `NCCSCc1cccc(F)c1`, the MIC in data set [2] was determined as 0.04 µg/mL (≈ 0.216 µM). Moreover, the Efficacy in data set [3] is 50%.

In the case of `CN/C(=N\C#N)NCCSCc1ccc(F)c(F)c1`, the MIC in data set [2] came to 0.048 µg/mL (≈ 0.169 µM). The Efficacy in data set [3] was 33%.
